{"source": "patent US20110039721A1", "about": "“METHOD FOR PREDICTION ABOUT CARCINOGENICITY OF SUBSTANCE IN RODENT” (Chemicals Evaluation and Research Institute, priority 2007, published 2011)", "test_system": "mRNA expressed from the genes (A) to (D) in rat liver", "assay": "Behavior of genes (mRNA expression level, oligo-DNA microarray) in rat liver after 28-day oral administration", "format": "in vivo", "conditions": "mRNA vs vehicle control group", "experimental": "A test solution was prepared by dissolving each of the carcinogens and the non-carcinogens shown in Tables 2 to 6 in the corresponding solvent shown in Tables 2 to 6. Each of the thus prepared test solutions and the solvents used for the preparation was administered by oral gavage to rats in each group. As the rats, male rats (F344 SPF rats) at 5 weeks of age obtained from Charles River Laboratories Japan, Inc. were used. The animals were divided into groups, each containing four individuals. The volume of the solvent administered to the vehicle control group was set to the same volume as that of the test solution administered to the carcinogen administration group or the non-carcinogen administration group. The administration of the test solution or the solvent was performed once daily for 28 days. Apiece was excised from the liver of each of the rats after a lapse of 28 days from the initiation of the administration, and the total RNA was extracted and purified.\nThe expression level of mRNA was compared between each of the chemical substance administration groups and the corresponding vehicle control group, and genes that satisfy the requirements described in (A) to (D) were selected, respectively.\nThe case where the expression level of mRNA in the carcinogen administration group or the non-carcinogen administration group is 1.5 times or more or 1/1.5 or less of the expression level of the corresponding mRNA expressed in the control group was determined to be significant. In this connection, the determination as to whether or not the change is significant was performed by taking into consideration the direction of increase or decrease in the expression level. In the case where the direction of increase or decrease is different as compared with the case where another carcinogen was administered, the change was determined to be not significant.", "key": {"[1]": {"conditions": "gene group (A), Unigene No. Rn.167075"}, "[2]": {"conditions": "gene group (C), Unigene No. Rn.120914"}}}
{"smiles": "Clc1c(Cl)c(Cl)c(Cl)c(Cl)c1Cl", "note": "[TS020, Hexachlorobenzene]", "values": [{"measurement": "Behavior of gene caused by administration of chemical substance, Gene No. 4846", "setting": "gene group (A), Unigene No. Rn.144554", "result": "−"}, {"measurement": "Behavior of gene caused by administration of chemical substance, Gene No. 2026", "setting": "[1]", "result": "−"}, {"measurement": "Behavior of gene caused by administration of chemical substance, Gene No. 4218", "setting": "[1]", "result": "−"}, {"measurement": "Behavior of gene caused by administration of chemical substance, Gene No. 6182", "setting": "gene group (A), Unigene No. Rn.5834", "result": "+"}, {"measurement": "Behavior of gene caused by administration of chemical substance, Gene No. 5600", "setting": "gene group (A), Unigene No. Rn.9836", "result": "−"}, {"measurement": "Behavior of gene caused by administration of chemical substance, Gene No. 1494", "setting": "gene group (B), Unigene No. Rn.1430", "result": "+"}, {"measurement": "Behavior of gene caused by administration of chemical substance, Gene No. 2045", "setting": "gene group (B), Unigene No. Rn.19329", "result": "+"}, {"measurement": "Behavior of gene caused by administration of chemical substance, Gene No. 2203", "setting": "gene group (B), Unigene No. Rn.21240", "result": "+"}, {"measurement": "Behavior of gene caused by administration of chemical substance, Gene No. 533", "setting": "gene group (C), Unigene No. Rn.106184", "result": "+"}, {"measurement": "Behavior of gene caused by administration of chemical substance, Gene No. 725", "setting": "gene group (C), Unigene No. Rn.108075", "result": "−"}, {"measurement": "Behavior of gene caused by administration of chemical substance, Gene No. 1163", "setting": "gene group (C), Unigene No. Rn.11766", "result": "−"}, {"measurement": "Behavior of gene caused by administration of chemical substance, Gene No. 4973", "setting": "gene group (C), Unigene No. Rn.118529", "result": "−"}, {"measurement": "Behavior of gene caused by administration of chemical substance, Gene No. 4095", "setting": "gene group (C), Unigene No. Rn.119024", "result": "−"}, {"measurement": "Behavior of gene caused by administration of chemical substance, Gene No. 1334", "setting": "[2]", "result": "−"}, {"measurement": "Behavior of gene caused by administration of chemical substance, Gene No. 6620", "setting": "[2]", "result": "−"}, {"measurement": "Behavior of gene caused by administration of chemical substance, Gene No. 6303", "setting": "gene group (C), Unigene No. Rn.123063", "result": "−"}, {"measurement": "Behavior of gene caused by administration of chemical substance, Gene No. 5878", "setting": "gene group (C), Unigene No. Rn.143213", "result": "−"}, {"measurement": "Behavior of gene caused by administration of chemical substance, Gene No. 1131", "setting": "gene group (C), Unigene No. Rn.144946", "result": "−"}, {"measurement": "Behavior of gene caused by administration of chemical substance, Gene No. 1562", "setting": "gene group (C), Unigene No. Rn.14744", "result": "−"}, {"measurement": "Behavior of gene caused by administration of chemical substance, Gene No. 1741", "setting": "gene group (C), Unigene No. Rn.1647", "result": "−"}, {"measurement": "Behavior of gene caused by administration of chemical substance, Gene No. 893", "setting": "gene group (C), Unigene No. Rn.164817", "result": "−"}, {"measurement": "Behavior of gene caused by administration of chemical substance, Gene No. 6026", "setting": "gene group (C), Unigene No. Rn.167685", "result": "−"}, {"measurement": "Behavior of gene caused by administration of chemical substance, Gene No. 154", "setting": "gene group (C), Unigene No. Rn.185941", "result": "−"}, {"measurement": "Behavior of gene caused by administration of chemical substance, Gene No. 1993", "setting": "gene group (C), Unigene No. Rn.18728", "result": "−"}, {"measurement": "Behavior of gene caused by administration of chemical substance, Gene No. 813", "setting": "gene group (C), Unigene No. Rn.201760", "result": "−"}, {"measurement": "Behavior of gene caused by administration of chemical substance, Gene No. 2494", "setting": "gene group (C), Unigene No. Rn.23969", "result": "−"}, {"measurement": "Behavior of gene caused by administration of chemical substance, Gene No. 2546", "setting": "gene group (C), Unigene No. Rn.24561", "result": "−"}, {"measurement": "Behavior of gene caused by administration of chemical substance, Gene No. 3776", "setting": "gene group (C), Unigene No. Rn.43232", "result": "−"}, {"measurement": "Behavior of gene caused by administration of chemical substance, Gene No. 3929", "setting": "gene group (C), Unigene No. Rn.4620", "result": "−"}, {"measurement": "Behavior of gene caused by administration of chemical substance, Gene No. 1119", "setting": "gene group (C), Unigene No. Rn.9757", "result": "−"}, {"measurement": "Behavior of gene caused by administration of chemical substance, Gene No. 6742", "setting": "gene group (C), Unigene No. Rn.9779", "result": "−"}, {"measurement": "Behavior of gene caused by administration of chemical substance, Gene No. 5634", "setting": "gene group (C), Unigene No. Rn.9862", "result": "−"}, {"measurement": "Behavior of gene caused by administration of chemical substance, Gene No. 5726", "setting": "gene group (D), Unigene No. Rn.9939", "result": "−"}]}
